In brackets after ≈: the same amount, converted by molar mass.
What was measured:
[1] = cited from earlier work; for solubility in dimethyl sulfoxide / solubility in ethanol / solubility in water: from C. longa
[2] = Storage stability of curcuminoids solubilized in steviol glycoside solutions, HPLC; details: for stability of solubilized curcuminoids at room temperature: 10% (w/v) SG, protected from light, 24 h
Experimental: (§1) In order to evaluate the stability in 10% (w/v) SGs, the water-soluble curcuminoids were analyzed by HPLC for 1 month. […] In order to achieve better solubility, transglycosylation is regarded as an important procedural phenomenon that leads to structural modifications and derivatizations that result in enhanced biological activities and improved solubility. Moreover, heating in the case of microwave irradiation is usually dependent on the nature of the sample, the solvent employed, and the irradiation power level mediated through the ionic conduction and dipole rotation (also known as dipole polarization) of the microwaves. In the absence of ions, water dipoles are found in the free form and may experience dipole rotation due to microwave radiation-induced oscillation.

[3] = Solubility of curcuminoids in the presence of steviol glycosides, with or without microwave or other physical treatment, HPLC; details: steviol glycoside 10% w/v; for Bisdemethoxycurcumin (mg/mL) NT / Curcumin (mg/mL) NT / Demethoxycurcumin (mg/mL) NT / Total Curcuminoids (mg/mL) NT: not treated by microwave
Experimental: The effect of water concentration to extract curcuminoids was investigated. […] The mixture in an ethanol solution was vortexed for 15 min and centrifuged at 12,000× g for 10 min (SupraR30, W × D × H: 710 × 1000 × 1260 mm, Hanil Scientific Inc., Gimp, Korea). The supernatant was transferred to a new tube and ethanol was evaporated. The resulting powders were dissolved in water, centrifuged at 12,000× g for 10 min, and filtered through a 0.20 μm membrane (Agilent, Santa Clara, CA, USA).
Weighing of the appropriate amounts of each steviol glycoside and curcuminoids was carried out, and they were put into 50 mL glass bottles. Furthermore, the suspension of curcuminoid–SG was subjected to heating by exposure to microwave irradiation in a microwave-assisted extractor (CEM, Matthews, NC, USA) at 100 W and 25 °C. Prior to conducting chromatographic analyses as per the reported method of Nguyen et al., the filtration of all samples was performed using a 0.45 μm nylon syringe filter (Millipore, Billerica, MA, USA). The quantitative concentration determination of curcuminoids and SGs was performed by employing series of standard solutions of curcuminoid in methanol with concentrations ranging from 0.15 to 10 μg/mL according to the reported method. Chromatographic separation for quantitative analysis was carried out using an Agilent 1200 liquid chromatographic system (Agilent Technologies, Palo Alto, CA, USA) equipped with an autosampler, quaternary HPLC pump, degasser, ZORBAX SB-C18 column (5 μm, 4.6 × 150 mm), and UV detector (VWD) set at 210 and 260 nm. The mobile phase for HPLC consisted of solvent A, which was 0.1% trifluoroacetic acid in water, and solvent B, which was 0.1% trifluoroacetic acid in acetonitrile. The solvent gradient was as follows (relative to solvent A): 0 min, 80% A; 10 min, 75% B; 20 min, 65% B; 30 min, 50% B; 40 min, 40%; 50 min, 30%; 60 min, 0% B; 0 min, 20%; 10 min, 25% B; 20 min, 35% B; 30 min, 50%; 40 min, 60%; 50 min, 70%; and 60 min, 100%. The column temperature was maintained at 30 °C with an injection volume of 10 μL at a flow rate of 1.0 mL/min.
as §1

In the case of `O=C(/C=C/c1ccc(O)cc1)CC(=O)/C=C/c1ccc(O)cc1` [BDMC, bisdemethoxycurcumin], the “solubility in dimethyl sulfoxide” value [1] is given as 25000 µg/mL (≈ 81.1 mM), the solubility in ethanol [1] is given as 10000 µg/mL (≈ 32.4 mM) and the solubility in water [1] is given as 11 µg/mL (≈ 0.0357 mM).

In the case of `COc1cc(/C=C/C(=O)CC(=O)/C=C/c2ccc(O)c(OC)c2)ccc1O` [Curcumin, curcumin], the “solubility in dimethyl sulfoxide” value [1] is listed as 25000 µg/mL (≈ 67.9 mM), the solubility in ethanol [1] is listed as 10000 µg/mL (≈ 27.1 mM) and the solubility in water [1] is listed as 11 µg/mL (≈ 0.0299 mM).

In the case of `COc1cc(/C=C/C(O)=C/C(=O)/C=C/c2ccc(O)cc2)ccc1O` [DMC, demethoxycurcumin], the “solubility in dimethyl sulfoxide” value [1] is given as 25000 µg/mL (≈ 73.9 mM), the solubility in ethanol [1] is given as 10000 µg/mL (≈ 29.6 mM) and the solubility in water [1] is given as 11 µg/mL (≈ 0.0325 mM).

For `C=C1C[C@@]23CC[C@H]4[C@@](C)(CCC[C@@]4(C)C(=O)O[C@@H]4O[C@H](CO)[C@@H](O)[C@H](O)[C@H]4O)[C@@H]2CC[C@]1(O[C@@H]1O[C@H](CO)[C@@H](O)[C@H](O)[C@H]1O)C3` [R, rubusoside], the “stability of solubilized curcuminoids at room temperature” value [2] is listed as “highly stable”, the “stability of aqueous curcuminoid solutions on long-term storage” value [2] is listed as “did not exhibit good stability” and the “solubility of curcumin in rubusoside aqueous solution” value ([1]; 10% rubusoside aqueous solution (w/v)) is listed as 600 to 2300 µg/mL.

With `C=C1C[C@@]23CC[C@H]4[C@@](C)(CCC[C@@]4(C)C(=O)O)[C@@H]2CC[C@]1(O[C@@H]1O[C@H](CO)[C@@H](O)[C@H](O)[C@H]1O)C3` [SMG, steviol mono-glucoside] the “Total Curcuminoids Ratio Microwave /NT (fold)” value [3] was 7.3 fold, the “Bisdemethoxycurcumin (mg/mL) NT” value [3] was 0.04 ± 0.01 mg/mL and the “Curcumin (mg/mL) NT” value [3] was 0.46 ± 0.1 mg/mL. For the same compound, the “Demethoxycurcumin (mg/mL) NT” value [3] was 0.04 ± 0.01 mg/mL, the “Total Curcuminoids (mg/mL) NT” value [3] was 0.54 ± 0.1 mg/mL and the “Bisdemethoxycurcumin (mg/mL) Microwave” value [3] was 0.52 ± 0.1 mg/mL. For the same compound, the “Curcumin (mg/mL) Microwave” value [3] was 2.52 ± 0.15 mg/mL, the “Demethoxycurcumin (mg/mL) Microwave” value [3] was 0.88 ± 0.1 mg/mL and the “Total Curcuminoids (mg/mL) Microwave” value [3] was 3.92 ± 0.5 mg/mL.

With `C=C1C[C@@]23CC[C@H]4[C@@](C)(CCC[C@@]4(C)C(=O)O[C@@H]4O[C@H](CO)[C@@H](O)[C@H](O)[C@H]4O)[C@@H]2CC[C@]1(O[C@@H]1O[C@H](CO)[C@@H](O)[C@H](O)[C@H]1O[C@@H]1O[C@H](CO)[C@@H](O)[C@H](O)[C@H]1O)C3` [ST, stevioside] the “stability of solubilized curcuminoids at room temperature” value [2] was “highly stable”.

For α-glucosyl stevioside [STG], the “Total Curcuminoids Ratio Microwave /NT (fold)” value [3] was 7.0 fold, the “Bisdemethoxycurcumin (mg/mL) NT” value [3] was 0.04 ± 0.01 mg/mL and the “Curcumin (mg/mL) NT” value [3] was 0.51 ± 0.2 mg/mL. For the same compound, the “Demethoxycurcumin (mg/mL) NT” value [3] was 0.05 ± 0.01 mg/mL, the “Total Curcuminoids (mg/mL) NT” value [3] was 0.61 ± 0.1 mg/mL and the “Bisdemethoxycurcumin (mg/mL) Microwave” value [3] was 0.69 ± 0.2 mg/mL. The “Curcumin (mg/mL) Microwave” value [3] was 2.72 ± 0.3 mg/mL, the “Demethoxycurcumin (mg/mL) Microwave” value [3] was 0.83 ± 0.1 mg/mL and the “Total Curcuminoids (mg/mL) Microwave” value [3] was 4.24 ± 0.6 mg/mL. The “stability of aqueous curcuminoid solutions on long-term storage” value [2] was “very good stability”.
